Experimental data taken from PubChem BioAssay AID1918947 (Molecular Pharmacology Branch, DTP, NCI, 2023).
Where “and” joins values, the source holds several entries; their conditions need not be identical. Equal values may be shown once. Blank lines part the entries; values can stand above or below the compound they belong to.

System: A498 complex spheroid viability
Assay: Anticancer human tumor A498 cell line growth inhibition;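 also: spheroids exposed to agents for seven days before readout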;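 as to viability, T/C: 100% = DMSO vehicle-treated spheroids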
Settings: for viability, T/C: stronger effect = lower value
Procedure, shortened: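 Complex spheroids of tumor cells with HUVEC and human MSCs, exposed to iadademstat combined with other agents. Each agent tested in half-log steps from near clinical Cmax (else 10 microM top), DMSO ≤0.25%.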

[1] = curve of first compound, second compound 0.1 µM
[2] = curve of first compound, second compound 0.316 µM
[3] = curve of first compound, second compound 1 µM
[4] = curve of first compound, second compound 3.16 µM
[5] = curve of first compound, second compound 10 µM
[6] = second compound 0.1 µM, first compound 0.00949 µM
[7] = second compound 0.1 µM, first compound 0.03 µM
[8] = second compound 0.1 µM, first compound 0.0949 µM
[9] = second compound 0.1 µM, first compound 0.3 µM
[10] = second compound 0.1 µM, first compound 0.949 µM
[11] = second compound 0.1 µM, first compound 3 µM
[12] = second compound 0.316 µM, first compound 0.00949 µM
[13] = second compound 0.316 µM, first compound 0.03 µM
[14] = second compound 0.316 µM, first compound 0.0949 µM
[15] = second compound 0.316 µM, first compound 0.3 µM
[16] = second compound 0.316 µM, first compound 0.949 µM
[17] = second compound 0.316 µM, first compound 3 µM
[18] = second compound 1 µM, first compound 0.00949 µM
[19] = second compound 1 µM, first compound 0.03 µM
[20] = second compound 1 µM, first compound 0.0949 µM
[21] = second compound 1 µM, first compound 0.3 µM
[22] = second compound 1 µM, first compound 0.949 µM
[23] = second compound 1 µM, first compound 3 µM
[24] = second compound 3.16 µM, first compound 0.00949 µM
[25] = second compound 3.16 µM, first compound 0.03 µM
[26] = second compound 3.16 µM, first compound 0.0949 µM
[27] = second compound 3.16 µM, first compound 0.3 µM
[28] = second compound 3.16 µM, first compound 0.949 µM
[29] = second compound 3.16 µM, first compound 3 µM
[30] = second compound 10 µM, first compound 0.00949 µM
[31] = second compound 10 µM, first compound 0.03 µM
[32] = second compound 10 µM, first compound 0.0949 µM
[33] = second compound 10 µM, first compound 0.3 µM
[34] = second compound 10 µM, first compound 0.949 µM
[35] = second compound 10 µM, first compound 3 µM
[36] = second compound 0.1 µM, first compound 0.00316 µM
[37] = second compound 0.1 µM, first compound 0.01 µM
[38] = second compound 0.1 µM, first compound 0.0316 µM
[39] = second compound 0.1 µM, first compound 0.1 µM
[40] = second compound 0.1 µM, first compound 0.316 µM
[41] = second compound 0.1 µM, first compound 1 µM
[42] = second compound 0.316 µM, first compound 0.00316 µM
[43] = second compound 0.316 µM, first compound 0.01 µM
[44] = second compound 0.316 µM, first compound 0.0316 µM
[45] = second compound 0.316 µM, first compound 0.1 µM
[46] = second compound 0.316 µM, first compound 0.316 µM
[47] = second compound 0.316 µM, first compound 1 µM
[48] = second compound 1 µM, first compound 0.00316 µM
[49] = second compound 1 µM, first compound 0.01 µM
[50] = second compound 1 µM, first compound 0.0316 µM
[51] = second compound 1 µM, first compound 0.1 µM
[52] = second compound 1 µM, first compound 0.316 µM
[53] = second compound 1 µM, first compound 1 µM
[54] = second compound 3.16 µM, first compound 0.00316 µM
[55] = second compound 3.16 µM, first compound 0.01 µM
[56] = second compound 3.16 µM, first compound 0.0316 µM
[57] = second compound 3.16 µM, first compound 0.1 µM
[58] = second compound 3.16 µM, first compound 0.316 µM
[59] = second compound 3.16 µM, first compound 1 µM
[60] = second compound 10 µM, first compound 0.00316 µM
[61] = second compound 10 µM, first compound 0.01 µM
[62] = second compound 10 µM, first compound 0.0316 µM
[63] = second compound 10 µM, first compound 0.1 µM
[64] = second compound 10 µM, first compound 0.316 µM
[65] = second compound 10 µM, first compound 1 µM

Structure (SMILES): Nc1ccccc1NC(=O)c1ccc(CNC(=O)OCc2cccnc2)cc1 + NC1CC1c1ccc(-c2cccc(O)c2)cc1
IC50 [1]: 357 nM
IC50 [2]: 333 nM
IC50 [3]: 284 nM
IC50 [4]: 362 nM
IC50 [5]: 266 nM
viability, T/C [6]: 89.5%
viability, T/C [7]: 88%
viability, T/C [8]: 72.6%
viability, T/C [9]: 59.2%
viability, T/C [10]: 19.5%
viability, T/C [11]: 1.7%
viability, T/C [12]: 93.1%
viability, T/C [13]: 95.4%
viability, T/C [14]: 84.1%
viability, T/C [15]: 50.6%
viability, T/C [16]: 21.1%
viability, T/C [17]: 1.7%
viability, T/C [18]: 88.3%
viability, T/C [19]: 89.3%
viability, T/C [20]: 77.7%
viability, T/C [21]: 46%
viability, T/C [22]: 20.6%
viability, T/C [23]: 1.74%
viability, T/C [24]: 81%
viability, T/C [25]: 87.5%
viability, T/C [26]: 78.2%
viability, T/C [27]: 55.7%
viability, T/C [28]: 19.2%
viability, T/C [29]: 2.01%
viability, T/C [30]: 86.2%
viability, T/C [31]: 78.6%
viability, T/C [32]: 70.7%
viability, T/C [33]: 48.1%
viability, T/C [34]: 19.4%
viability, T/C [35]: 1.69%

Structure (SMILES): O=C(C=Cn1cnc(-c2cc(C(F)(F)F)cc(C(F)(F)F)c2)n1)NNc1cnccn1 + NC1CCC(NC2CC2c2ccccc2)CC1
IC50 [1]: 5.21 nM
IC50 [2]: 7.74 nM
IC50 [3]: 6.26 nM
IC50 [4]: 6.7 nM
IC50 [5]: 4.09 nM
viability, T/C [36]: 56.5%
viability, T/C [37]: 40.9%
viability, T/C [38]: 33.6%
viability, T/C [39]: 26.6%
viability, T/C [40]: 24.9%
viability, T/C [41]: 20.9%
viability, T/C [42]: 66.7%
viability, T/C [43]: 44.4%
viability, T/C [44]: 33.5%
viability, T/C [45]: 31.2%
viability, T/C [46]: 24.1%
viability, T/C [47]: 23.4%
viability, T/C [48]: 62.4%
viability, T/C [49]: 39.2%
viability, T/C [50]: 34.1%
viability, T/C [51]: 27.1%
viability, T/C [52]: 21.9%
viability, T/C [53]: 21.2%
viability, T/C [54]: 61.5%
viability, T/C [55]: 42.6%
viability, T/C [56]: 34.1%
viability, T/C [57]: 26.9%
viability, T/C [58]: 21.5%
viability, T/C [59]: 20.5%
viability, T/C [60]: 53.4%
viability, T/C [61]: 39.2%
viability, T/C [62]: 31.1%
viability, T/C [63]: 26.4%
viability, T/C [64]: 22.9%
viability, T/C [65]: 16.4%

Structure (SMILES): CC1(C)CCC(CN2CCN(c3ccc(C(=O)NS(=O)(=O)c4ccc(NCC5CCOCC5)c([N+](=O)[O-])c4)c(Oc4cnc5[nH]ccc5c4)c3)CC2)=C(c2ccc(Cl)cc2)C1 + NC1CC1c1ccc(-c2cccc(O)c2)cc1
IC50 [1]: 4510 nM
IC50 [2]: 4160 nM
IC50 [3]: 4080 nM
IC50 [4]: 3700 nM
IC50 [5]: 3840 nM
viability, T/C [38]: 109%
viability, T/C [39]: 106%
viability, T/C [40]: 102%
viability, T/C [41]: 93.1%
viability, T/C (second compound 0.1 µM, first compound 3.16 µM): 69.6%
viability, T/C (second compound 0.1 µM, first compound 10 µM): 7.58%
viability, T/C [44]: 108%
viability, T/C [45]: 112%
viability, T/C [46]: 96.6%
viability, T/C [47]: 88.2%
viability, T/C (second compound 0.316 µM, first compound 3.16 µM): 66.7%
viability, T/C (second compound 0.316 µM, first compound 10 µM): 5.66%
viability, T/C [50]: 103%
viability, T/C [51]: 99.6%
viability, T/C [52]: 98.9%
viability, T/C [53]: 84.3%
viability, T/C (second compound 1 µM, first compound 3.16 µM): 64.1%
viability, T/C (second compound 1 µM, first compound 10 µM): 6.2%
viability, T/C [56]: 100%
viability, T/C [57]: 91.4%
viability, T/C [58]: 98.9%
viability, T/C [59]: 86.1%
viability, T/C (second compound 3.16 µM, first compound 3.16 µM): 57.2%
viability, T/C (second compound 3.16 µM, first compound 10 µM): 5.72%
viability, T/C [62]: 91.9%
viability, T/C [63]: 91.6%
viability, T/C [64]: 86.6%
viability, T/C [65]: 77.8%
viability, T/C (second compound 10 µM, first compound 3.16 µM): 59.9%
viability, T/C (second compound 10 µM, first compound 10 µM): 7.06%

Structure (SMILES): COc1cc(C2c3cc4c(cc3C(OC3OC5COC(C)OC5C(O)C3O)C3COC(=O)C23)OCO4)cc(OC)c1O (stereo not given) + NC1CC1c1ccc(-c2cccc(O)c2)cc1
IC50 [1]: 1800 nM
IC50 [2]: > 3000 nM
IC50 [3]: 1110 nM
IC50 [4]: 296 nM
IC50 [5]: 523 nM
viability, T/C [6]: 75.3%
viability, T/C [7]: 68.7%
viability, T/C [8]: 62.1%
viability, T/C [9]: 62.8%
viability, T/C [10]: 58.2%
viability, T/C [11]: 44.4%
viability, T/C [12]: 87.3%
viability, T/C [13]: 74.7%
viability, T/C [14]: 68.7%
viability, T/C [15]: 58.6%
viability, T/C [16]: 55.6%
viability, T/C [17]: 51.3%
viability, T/C [18]: 76.7%
viability, T/C [19]: 63%
viability, T/C [20]: 59.9%
viability, T/C [21]: 49.8%
viability, T/C [22]: 54.1%
viability, T/C [23]: 46.5%
viability, T/C [24]: 66.4%
viability, T/C [25]: 53.6%
viability, T/C [26]: 55.9%
viability, T/C [27]: 52.2%
viability, T/C [28]: 46.1%
viability, T/C [29]: 42.9%
viability, T/C [30]: 63.5%
viability, T/C [31]: 61.1%
viability, T/C [32]: 57.5%
viability, T/C [33]: 51.7%
viability, T/C [34]: 47.4%
viability, T/C [35]: 41.7%

IC50 (compound alone, run of 12/07/2021): > 10000 nM
Structure (SMILES): NC1CC1c1ccc(-c2cccc(O)c2)cc1 (stereo not given)
viability, T/C (compound 0.316 µM): 104% [middle of 25 runs]
viability, T/C (compound 10 µM): 94.1% [middle of 25 runs]

Structure (SMILES): Cn1ncnc1C1c2n[nH]c(=O)c3cc(F)cc(c23)NC1c1ccc(F)cc1 (stereo not given) + NC1CCC(NC2CC2c2ccccc2)CC1
IC50 [1]: > 100 nM
IC50 [2]: > 100 nM
IC50 [3]: > 100 nM
IC50 [4]: > 100 nM
IC50 [5]: > 100 nM
viability, T/C (second compound 0.1 µM, first compound 0.000316 µM): 84%
viability, T/C (second compound 0.1 µM, first compound 0.001 µM): 88.1%
viability, T/C [36]: 82.7%
viability, T/C [37]: 87.4%
viability, T/C [38]: 85.1%
viability, T/C [39]: 85.3%
viability, T/C (second compound 0.316 µM, first compound 0.000316 µM): 95.5%
viability, T/C (second compound 0.316 µM, first compound 0.001 µM): 95.5%
viability, T/C [42]: 95%
viability, T/C [43]: 89%
viability, T/C [44]: 85.7%
viability, T/C [45]: 90.9%
viability, T/C (second compound 1 µM, first compound 0.000316 µM): 84.2%
viability, T/C (second compound 1 µM, first compound 0.001 µM): 94.5%
viability, T/C [48]: 87%
viability, T/C [49]: 84.2%
viability, T/C [50]: 78.5%
viability, T/C [51]: 81.3%
viability, T/C (second compound 3.16 µM, first compound 0.000316 µM): 83.8%
viability, T/C (second compound 3.16 µM, first compound 0.001 µM): 85.3%
viability, T/C [54]: 85.3%
viability, T/C [55]: 78.5%
viability, T/C [56]: 79.6%
viability, T/C [57]: 74.9%
viability, T/C (second compound 10 µM, first compound 0.000316 µM): 77.2%
viability, T/C (second compound 10 µM, first compound 0.001 µM): 76.8%
viability, T/C [60]: 78.2%
viability, T/C [61]: 74.9%
viability, T/C [62]: 75.8%
viability, T/C [63]: 65.3%

IC50 (curve of compound): 164 nM and 115 nM
Structure (SMILES): COc1ccc([C@@H](O)c2cc(-c3ncnc4cc(N5CCOCC5)ccc34)c(F)cc2Cl)nn1
viability, T/C (compound 0.0316 µM): 84.8% and 74.3%
viability, T/C (compound 0.1 µM): 62.5% and 53.8%
viability, T/C (compound 0.316 µM): 33.1% and 28.8%
viability, T/C (compound 1 µM): 19.1% and 18.4%
viability, T/C (compound 3.16 µM): 10.7% and 9.71%
viability, T/C (compound 10 µM): 6.93% and 6.16%
